# From ChEMBL document CHEMBL4371077, “Cyclic tripeptide-based potent human SIRT7 inhibitors” (Bioorg Med Chem Lett, 2019)
# Residues, ends and D or L forms follow the SMILES beside them.
# Legend:
# [1] = target: NAD-dependent protein deacylase sirtuin-5, mitochondrial (Homo sapiens, UniProt Q9NXA8); test: Inhibition of desuccinylation activity of recombinant human full length N-terminal GST-tagged SIRT5 expressed in Escherichia coli using CH3CONH-AR-[Nepsilon-succinyl-lysine]-ST-CONH2 as substrate measured after 5 mins by HPLC analysis
# Sequence of NAD-dependent protein deacylase sirtuin-5, mitochondrial (Q9NXA8 whole entry): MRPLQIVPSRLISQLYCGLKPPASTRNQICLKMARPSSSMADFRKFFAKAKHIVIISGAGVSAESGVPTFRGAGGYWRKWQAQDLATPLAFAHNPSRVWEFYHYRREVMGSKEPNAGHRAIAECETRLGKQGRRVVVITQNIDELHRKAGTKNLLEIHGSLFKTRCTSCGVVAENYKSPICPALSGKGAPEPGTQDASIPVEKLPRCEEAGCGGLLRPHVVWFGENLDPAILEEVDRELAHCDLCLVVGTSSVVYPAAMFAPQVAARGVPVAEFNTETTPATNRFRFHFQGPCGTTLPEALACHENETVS
# [2] = Proteolytic stability of the compound assessed as Streptomyces griseus pronase-mediated compound hydrolysis by measuring parent compound remaining after 6 mins by HPLC method; type: ADME; settings: read-out: Stability
# [3] = target: T1, NAD-dependent protein deacetylase sirtuin-1 (Homo sapiens, UniProt Q96EB6); test: Inhibition of recombinant human SIRT1 deacetylase activity using H2N-HK-[Nepsilon-acetyl-lysine]-LM-COOH as substrate measured after 10 mins by HPLC analysis
# T1 sequence (Q96EB6 whole entry): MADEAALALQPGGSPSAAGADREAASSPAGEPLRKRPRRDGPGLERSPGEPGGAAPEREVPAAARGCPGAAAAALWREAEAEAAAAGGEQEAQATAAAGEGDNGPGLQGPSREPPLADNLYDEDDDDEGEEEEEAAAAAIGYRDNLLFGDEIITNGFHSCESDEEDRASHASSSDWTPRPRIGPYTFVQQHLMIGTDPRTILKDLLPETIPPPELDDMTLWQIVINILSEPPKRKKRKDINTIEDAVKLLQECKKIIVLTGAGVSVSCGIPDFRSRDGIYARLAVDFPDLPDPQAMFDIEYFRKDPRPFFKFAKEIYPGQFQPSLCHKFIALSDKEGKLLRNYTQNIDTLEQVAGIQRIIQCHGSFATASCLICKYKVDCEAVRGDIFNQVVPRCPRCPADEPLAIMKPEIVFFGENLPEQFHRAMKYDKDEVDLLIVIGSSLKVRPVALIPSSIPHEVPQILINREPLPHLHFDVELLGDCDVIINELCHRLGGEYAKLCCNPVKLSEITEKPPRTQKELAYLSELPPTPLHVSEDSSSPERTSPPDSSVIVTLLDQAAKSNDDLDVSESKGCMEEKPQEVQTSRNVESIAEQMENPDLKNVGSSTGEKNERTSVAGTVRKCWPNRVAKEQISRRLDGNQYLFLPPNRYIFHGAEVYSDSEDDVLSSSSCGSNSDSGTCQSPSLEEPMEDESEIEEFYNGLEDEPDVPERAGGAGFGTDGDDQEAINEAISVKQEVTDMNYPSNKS
# [4] = target: T2, NAD-dependent protein deacetylase sirtuin-2 (Homo sapiens, UniProt Q8IXJ6); test: Inhibition of deacetylation activity of recombinant human N-terminal His6-tagged SIRT2 (2 to 389 residues) expressed in Escherichia coli using H2N-HK-[Nepsilon-acetyl-lysine]-LM-COOH as substrate measured after 12 mins by HPLC analysis
# T2 sequence (Q8IXJ6 whole entry): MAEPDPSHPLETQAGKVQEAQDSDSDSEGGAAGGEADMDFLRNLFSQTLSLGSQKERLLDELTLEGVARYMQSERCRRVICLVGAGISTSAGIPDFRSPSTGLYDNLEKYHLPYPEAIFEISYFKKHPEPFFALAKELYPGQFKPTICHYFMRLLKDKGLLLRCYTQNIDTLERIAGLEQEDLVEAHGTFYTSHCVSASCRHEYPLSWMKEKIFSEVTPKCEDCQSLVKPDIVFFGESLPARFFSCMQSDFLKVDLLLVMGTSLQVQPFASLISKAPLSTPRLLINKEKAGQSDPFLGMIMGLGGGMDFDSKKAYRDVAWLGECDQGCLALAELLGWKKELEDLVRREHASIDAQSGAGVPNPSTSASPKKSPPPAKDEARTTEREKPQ
# [5] = target: T3, NAD-dependent protein deacetylase sirtuin-3, mitochondrial (Homo sapiens, UniProt Q9NTG7); test: Inhibition of deacetylation activity of recombinant human N-terminal His6-tagged SIRT3 (101 to 399 residues) expressed in Escherichia coli using H2N-HK-[Nepsilon-acetyl-lysine]-LM-COOH as substrate measured after 10 mins by HPLC analysis
# T3 sequence (Q9NTG7 whole entry): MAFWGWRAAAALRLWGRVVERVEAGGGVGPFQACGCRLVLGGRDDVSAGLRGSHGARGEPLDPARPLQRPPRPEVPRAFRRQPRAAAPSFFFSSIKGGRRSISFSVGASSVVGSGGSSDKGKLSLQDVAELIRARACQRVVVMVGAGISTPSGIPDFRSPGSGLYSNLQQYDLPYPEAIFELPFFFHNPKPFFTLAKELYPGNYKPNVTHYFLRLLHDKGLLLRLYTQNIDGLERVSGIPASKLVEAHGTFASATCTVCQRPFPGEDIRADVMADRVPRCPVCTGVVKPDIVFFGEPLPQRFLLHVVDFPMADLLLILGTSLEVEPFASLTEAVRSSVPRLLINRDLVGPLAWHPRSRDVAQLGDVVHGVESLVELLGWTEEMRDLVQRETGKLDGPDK
# [6] = target: T4, NAD-dependent protein deacetylase sirtuin-7 (Homo sapiens, UniProt Q9NRC8); test: Inhibition of tRNA-activated deacetylation activity of recombinant human full length N-terminal His6-tagged SIRT7 expressed in Escherichia coli using H2N-GGKAPR-[Nepsilon-acetyl-lysine]-QLATKA-CONH2 as substrate measured after 30 mins by HPLC analysis
# T4 sequence (Q9NRC8 whole entry): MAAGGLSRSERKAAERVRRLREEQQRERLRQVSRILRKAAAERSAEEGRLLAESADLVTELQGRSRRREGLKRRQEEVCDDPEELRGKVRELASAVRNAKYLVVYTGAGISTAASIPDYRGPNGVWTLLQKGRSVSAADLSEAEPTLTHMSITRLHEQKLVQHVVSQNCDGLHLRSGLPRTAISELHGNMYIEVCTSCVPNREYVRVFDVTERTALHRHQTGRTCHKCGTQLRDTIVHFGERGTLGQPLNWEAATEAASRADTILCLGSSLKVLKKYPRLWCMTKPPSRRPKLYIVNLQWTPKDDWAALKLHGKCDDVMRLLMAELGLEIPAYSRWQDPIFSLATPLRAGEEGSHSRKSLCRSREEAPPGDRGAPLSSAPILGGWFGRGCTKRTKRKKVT
# [7] = target: NAD-dependent protein deacylase sirtuin-6 (Homo sapiens, UniProt Q8N6T7); test: Inhibition of demyristoylation activity of recombinant human full length N-terminal His6-tagged SIRT6 expressed in Escherichia coli using H2N-EALPK-[Nepsilon-myristoyl-lysine]-TGGPQ-CONH2 as substrate measured after 12 mins by HPLC analysis
# Sequence of NAD-dependent protein deacylase sirtuin-6 (Q8N6T7 whole entry): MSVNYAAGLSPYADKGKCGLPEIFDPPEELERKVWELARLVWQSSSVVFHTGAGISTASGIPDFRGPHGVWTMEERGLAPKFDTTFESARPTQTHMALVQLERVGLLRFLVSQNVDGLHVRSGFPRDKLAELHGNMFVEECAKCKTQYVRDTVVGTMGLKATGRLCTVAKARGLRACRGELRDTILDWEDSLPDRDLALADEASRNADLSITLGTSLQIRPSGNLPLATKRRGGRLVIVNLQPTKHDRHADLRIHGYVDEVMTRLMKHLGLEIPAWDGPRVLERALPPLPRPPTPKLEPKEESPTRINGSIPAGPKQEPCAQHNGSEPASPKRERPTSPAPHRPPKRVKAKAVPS
IC50 [1] [µM],remaining at 0.1 h [2] [%],IC50 [3] [µM],IC50 [4] [µM],IC50 [5] [µM],IC50 [6] [µM],IC50 [7] [µM],Structure (SMILES)
> 150,55.7,1.8,10.3,1.6,11.1,7.9,CCCCCCCCCCCCNC(=S)NCCCC[C@@H]1NC(=O)[C@H](CCCNC(=N)N)NC(=O)CNC(=O)CCC(=O)NCC(=O)NCCCC[C@@H](C(N)=O)NC1=O
–,51.1,–,–,–,–,–,CSCC[C@H](NC(=O)[C@H](CC(C)C)NC(=O)[C@H](CCCCNC(C)=O)NC(=O)[C@H](CCCCN)NC(=O)[C@@H](N)Cc1cnc[nH]1)C(=O)O (H-HKK(Ac)LM-OH)
> 200,89.9,4.3,0.55,4.2,5,11.2,CCCCCCCCCCCCNC(=O)CCCCC[C@@H]1NC(=O)[C@H](CCCNC(=N)N)NC(=O)CNC(=O)CCC(=O)NCC(=O)NCCCC[C@@H](C(N)=O)NC1=O
–,–,–,–,–,85.3,–,CCCCCCCCCCCCCCNC(=S)NCCCC[C@@H]1NC(=O)[C@H](CCCNC(=N)N)NC(=O)CNC(=O)CCC(=O)NCC(=O)NCCCC[C@@H](C(N)=O)NC1=O
